Drawing on ChEMBL document CHEMBL1154739, “Synthesis and AChE inhibitory activity of new chiral tetrahydroacridine analogues from terpenic cyclanones” (Eur J Med Chem, 2010), this text covers IC50 for nine compounds.

This assay concerns the target T1, Acetylcholinesterase (Rattus norvegicus, UniProt P37136).
T1 sequence (P37136 whole entry): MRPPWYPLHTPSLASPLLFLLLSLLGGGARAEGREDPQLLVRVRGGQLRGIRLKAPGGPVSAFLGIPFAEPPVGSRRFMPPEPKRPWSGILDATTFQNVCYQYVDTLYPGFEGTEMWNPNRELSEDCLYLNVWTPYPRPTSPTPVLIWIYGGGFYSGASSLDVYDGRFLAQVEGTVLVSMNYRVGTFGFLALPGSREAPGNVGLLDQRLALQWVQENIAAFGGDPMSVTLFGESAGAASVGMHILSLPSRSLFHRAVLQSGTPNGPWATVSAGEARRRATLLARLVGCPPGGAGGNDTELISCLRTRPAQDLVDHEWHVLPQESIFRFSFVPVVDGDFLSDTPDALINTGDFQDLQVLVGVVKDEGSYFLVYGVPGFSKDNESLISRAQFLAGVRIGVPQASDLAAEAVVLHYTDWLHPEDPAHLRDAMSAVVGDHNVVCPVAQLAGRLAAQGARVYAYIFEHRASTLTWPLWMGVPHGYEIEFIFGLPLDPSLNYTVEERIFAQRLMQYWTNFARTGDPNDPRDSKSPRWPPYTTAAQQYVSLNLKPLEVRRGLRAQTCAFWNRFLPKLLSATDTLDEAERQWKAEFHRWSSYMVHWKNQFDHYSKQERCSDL
Description: Inhibition of AChE from rat cortex by Ellman assay

For orientation: IC50 means the concentration that gives 50% inhibition. Read a high IC50 as weaker potency. In turn, `C[C@@H]1CCc2c(nc3ccccc3c2N)C1` displayed a concentration for half-maximal inhibition (IC50) of 1.38 µM.

`CC(C)[C@H]1CCc2c(nc3ccccc3c2N)C1` yielded a half-inhibitory concentration (IC50) of 0.816 µM.

In the case of `C[C@H]1CC(=O)C(C)(C)c2nc3ccccc3c(N)c2C1`, inhibition was half-maximal at 0.288 µM (IC50).

Regarding `CC(C)[C@H]1CC[C@H](C(C)C)c2c1nc1ccccc1c2N`, the IC50 was 7.22 µM.

For `C[C@H]1CC[C@H](C(C)(C)C)c2nc3ccccc3c(N)c21`, the 50% inhibitory concentration (IC50) came out at 1.35 µM.

In the case of `CC1(C)[C@H]2Cc3c(nc4ccccc4c3N)[C@@H]1C2`, the IC50 is 1.93 µM.

As for `CC(C)[C@@H]1Cc2nc3ccccc3c(N)c2C1`, the midpoint of inhibition, the IC50, lay at 2.45 µM.

For the compound `C[C@@H]1c2c(nc3ccccc3c2N)[C@H]2C[C@@H]1C2(C)C`, it took 2.62 µM to reach half-maximal inhibition (IC50).

`C[C@H]1Cc2nc3ccccc3c(N)c2C1` yielded an IC50 of 0.061 µM.
